Read-outs that look alike come from different tables or passages of the source.

The test system of one assay is HEK293T cells. Description: qHTS cell viability (CellTiter-Glo, 72 h; primary screen), control cell line. Format: cell-based, human.
The next assay deals with MKL-1 cells (VP-MCC). As to the kind of experiment: qHTS cell viability (CellTiter-Glo, 72 h; primary and follow-up small molecule screen). Format: cell-based, human. In general terms: qHTS replaces the single test concentration by a dilution series.
The next assay deals with UISO cells (VN-MCC). The description is as above. Format: cell-based, human.
The next assay has as its system MCC26 cells (VN-MCC). Described as above. Format: cell-based, human.
The test system of the next assay is HACAT cells. As to the kind of experiment: qHTS cell viability (CellTiter-Glo, 72 h; primary screen), control cell line. Format: cell-based, human.
The subject of another assay is NIH-3T3 cells. Described as above. In kind it is cell-based, mouse.
The next assay relates to MCC13 cells (VN-MCC). As to the kind of experiment: qHTS cell viability (CellTiter-Glo, 72 h; primary and follow-up small molecule screen). In kind it is cell-based, human.
The subject of assay [1] is VP-MCC cell lines (WAGA, MKL-1, MKL-2). As to the kind of experiment: qHTS cell viability, VP-MCC cell lines as a group (mean AUC, VP.MCC.avg). Format: cell-based, human.
The test system of the next assay is WAGA cells (VP-MCC). As to the kind of experiment: qHTS cell viability (CellTiter-Glo, 72 h; primary and follow-up small molecule screen). In kind it is cell-based, human.
Assay [2] concerns six MCC cell lines and four control cell lines. As to the kind of experiment: qHTS cell viability, all 10 cell lines screened. In kind it is cell-based.
Assay [3] concerns control cell lines (HACAT, HEK293T, CRL-7250, NIH-3T3). Description: qHTS cell viability, control cell lines as a group (mean AUC, Control.avg). In kind it is cell-based.
The test system of the next assay is MKL-2 cells (VP-MCC). As to the kind of experiment: qHTS cell viability (CellTiter-Glo, 72 h; primary and follow-up small molecule screen). Format: cell-based, human.
Assay [4] deals with VN-MCC cell lines (MCC13, MCC26, UISO). Description: qHTS cell viability, VN-MCC cell lines as a group (mean AUC, VN.MCC.avg). In kind it is cell-based, human.
The test system of another assay is CRL-7250 cells. Description: qHTS cell viability (CellTiter-Glo, 72 h; primary screen), control cell line. In kind it is cell-based.
The test system of assay [5] is MCC cell lines (WAGA, MKL-1, MKL-2, MCC13, MCC26, UISO). As to the kind of experiment: qHTS cell viability, all six MCC cell lines as a group (mean AUC, MCC.avg). In kind it is cell-based, human.
Where [6] appears, read: MIPE library, 11-point DRC, control cell line, sheet S2E.
[7] abbreviates: MIPE library, 11-point DRC, sheet S2E.

In the assay on HEK293T cells (NPC library, qHTS dose-response AUC, HEK293T control), `CCCCCC(=O)O[C@]1(C(C)=O)CC[C@H]2[C@@H]3CCC4=CC(=O)CC[C@]4(C)[C@H]3CC[C@@]21C` [Hydroxyprogesterone caproate] registered an HEK293T_AUC of 404.302. Also, the MKL1_AUC in the assay on MKL-1 cells (VP-MCC) (NPC library, qHTS dose-response AUC, MKL1) is 343.375. Besides, in the assay on UISO cells (VN-MCC) (NPC library, qHTS dose-response AUC, UISO), the UISO_AUC was 419.635. Also, the MCC26_AUC in the assay on MCC26 cells (VN-MCC) (NPC library, qHTS dose-response AUC, MCC26) worked out at 432.584; in the assay on MCC26 cells (VN-MCC) (NPC library; qHTS dose-response AUC, MCC26) it was 432.583. In the assay with HACAT cells (NPC library, qHTS dose-response AUC, HACAT control), this molecule registered an HACAT_AUC of 471.336. In the assay with NIH-3T3 cells (NPC library, qHTS dose-response AUC, NIH3T3 control), the NIH3T3_AUC is listed as 480.983. The molecule further displayed an MCC13_AUC in the assay on MCC13 cells (VN-MCC) (NPC library, qHTS dose-response AUC, MCC13) of 442.155. Moreover, the Control-VP-MCC in assay [1] (Control AUC minus VP-MCC AUC) came to 125.408; in assay [1] (NPC library, therapeutic window: Control avg AUC minus VP-MCC avg AUC), 125.408. For the same molecule, the VP-MCC_Avg_AUC in assay [1] (NPC library, mean AUC of VP-MCC cell lines) is recorded as 330.619. The WAGA_AUC in the assay on WAGA cells (VP-MCC) (NPC library, qHTS dose-response AUC, WAGA) turned out to be 360.251. For the same molecule, in assay [2] (NPC library, therapeutic window: Control avg AUC minus MCC avg AUC), the Control-MCC is recorded as 74.9886. In addition, the Control_Avg_AUC in [3] (NPC library, mean AUC of control cell lines) came out at 456.027. In the assay on MKL-2 cells (VP-MCC) (NPC library, qHTS dose-response AUC, MKL2), this molecule yielded an MKL2_AUC of 288.23. The Control-VN-MCC in assay [4] (Control AUC minus VN-MCC AUC) is reported as 24.569; in assay [4] (NPC library, therapeutic window: Control avg AUC minus VN-MCC avg AUC) it was 24.569. Also, the VN-MCC_Avg_AUC in [4] (NPC library, mean AUC of VN-MCC cell lines) was determined as 431.458. The same molecule registered a CRL7250_AUC in the assay on CRL-7250 cells (NPC library, qHTS dose-response AUC, CRL7250 control) of 467.486. Besides, the MCC_Avg_AUC in [5] (NPC library, mean AUC of all 6 MCC cell lines) is recorded as 381.038; in [5] (NPC library, mean AUC of six MCC cell lines), 381.038.

`CC(C)(C)OC(=O)Nc1ccc(-c2cc(C(=O)NCCCCCCC(=O)NO)no2)cc1` [ISOX] displayed an HEK293T_AUC with HEK293T cells (setting [6]) of 382.485. The MKL1_AUC with MKL-1 cells (VP-MCC) (setting [7]) worked out at 349.979. The UISO_AUC in the assay on UISO cells (VN-MCC) (setting [7]) is listed as 418.415. Moreover, the MCC26_AUC in the assay with MCC26 cells (VN-MCC) (setting [7]) came to 447.653. This molecule displayed an HACAT_AUC in the assay on HACAT cells (setting [6]) of 439.928. In addition, the NIH3T3_AUC in the assay with NIH-3T3 cells (setting [6]) is given as 388.752. Besides, the MCC13_AUC with MCC13 cells (VN-MCC) (setting [7]) is 413.98. In assay [1] (MIPE library, Control AUC minus VP-MCC AUC (therapeutic window), sheet S2E), the Control-VP-MCC is 51.9911. In assay [1] (MIPE library, mean AUC of VP-MCC cell lines, sheet S2E), this molecule showed a VP-MCC_Avg_AUC of 353.707. Further, the WAGA_AUC in the assay with WAGA cells (VP-MCC) (setting [7]) was 354.914. Also, the Control-MCC in [2] (MIPE library, Control AUC minus MCC AUC (therapeutic window), sheet S2E) is 15.5032. The Control_Avg_AUC in assay [3] (MIPE library, mean AUC of control cell lines, sheet S2E) worked out at 405.698. In the assay on MKL-2 cells (VP-MCC) (setting [7]), this molecule displayed an MKL2_AUC of 356.229. Further, the Control-VN-MCC in assay [4] (MIPE library, Control AUC minus VN-MCC AUC (therapeutic window), sheet S2E) is recorded as -20.9846. In assay [4] (MIPE library, mean AUC of VN-MCC cell lines, sheet S2E), this molecule returned a VN-MCC_Avg_AUC of 426.683. The molecule also displayed a CRL7250_AUC in the assay with CRL-7250 cells (setting [6]) of 411.627. In addition, in assay [5] (MIPE library, mean AUC of six MCC cell lines, sheet S2E), the MCC_Avg_AUC is 390.195.

The molecule `CC[C@H]1C[C@@H]2C[C@H]3c4[nH]c5ccc(OC)cc5c4CCN(C2)[C@@H]13.Cl` [Ibogaine hydrochloride] yielded an HEK293T_AUC in the assay on HEK293T cells of 455.404. The same molecule gave an MKL1_AUC in the assay on MKL-1 cells (VP-MCC) of 439.962. Further, the UISO_AUC in the assay on UISO cells (VN-MCC) turned out to be 418.883. In addition, in the assay on MCC26 cells (VN-MCC), the MCC26_AUC came out at 419.663. The molecule further gave an HACAT_AUC with HACAT cells of 487.75. This molecule came in with an NIH3T3_AUC in the assay on NIH-3T3 cells of 484.099. In the assay on MCC13 cells (VN-MCC), this molecule displayed an MCC13_AUC of 435.55. In addition, in assay [1], the Control-VP-MCC amounted to 48.777 and the VP-MCC_Avg_AUC is given as 430.539. Moreover, in the assay on WAGA cells (VP-MCC), the WAGA_AUC turned out to be 409.341. In [2], this molecule showed a Control-MCC of 51.6972. Moreover, in [3], the Control_Avg_AUC is recorded as 479.316. Further, in the assay with MKL-2 cells (VP-MCC), the MKL2_AUC was found to be 442.315. In [4], this molecule yielded a Control-VN-MCC of 54.6174 and a VN-MCC_Avg_AUC of 424.699. This molecule came in with a CRL7250_AUC with CRL-7250 cells of 490.013. The molecule further had an MCC_Avg_AUC in assay [5] of 427.619.
